Measured values reported in the OligoGym collection.
Bases are written 5' to 3'; sugars and linkages follow in the same order, as letters with counts (s phosphorothioate, o phosphodiester; PS: all linkages phosphorothioate). The collection does not say whether C is 5-methylated. l = locked nucleic acid (LNA); d = 2'-deoxy (DNA)

These sequences were tested against Tau (assay: rat primary cortical neurons, FLIPR, 25 uM ASO).

Row | Sequence | calcium oscillation score
1 | ACCATTAACTGCCTATT (sugars l4 d11 l2, PS) | 50.5 % of control
2 | ATTAACCAATTAACCGAACT (sugars l3 d14 l3, PS) | 45.2 % of control
3 | GCTCTTCAAATCATTCA (sugars l4 d11 l2, PS) | 81.1 % of control
4 | TTTATTTCCAAATTCACTTT (sugars l5 d10 l5, PS) | ≥ 200 % of control
5 | ATACTCAAATTCTTCCT (sugars l3 d10 l4, PS) | 84.8 % of control
6 | TCGCTTCCAGTCCC (sugars l3 d8 l3, PS) | 142 % of control
7 | CTACCCCATTTTTGACAT (sugars l3 d13 l2, PS) | 48.7 % of control
8 | ATTAATTATCTGCACCT (sugars l4 d10 l3, PS) | 24.7 % of control
9 | GGCCACCTCCTGGTTT (sugars l3 d10 l3, PS) | 39.3 % of control
10 | TACCTTTTTATTTCCTC (sugars l4 d11 l2, PS) | 41.6 % of control
11 | TTCTTGTTCTAACCCCA (sugars l3 d12 l2, PS) | 68.1 % of control
12 | TCTTTATTAACACTCCAC (sugars l2 d12 l4, PS) | 64.6 % of control
13 | TTACCATCCTATCTTCT (sugars l2 d11 l4, PS) | 72.7 % of control
14 | CACCACTTTAATCTGCCT (sugars l2 d14 l2, PS) | 41.1 % of control
15 | AACAAACATCTAAACACCTC (sugars l3 d13 l4, PS) | 75.1 % of control
16 | CAGATTCCCCAACTCACA (sugars l2 d14 l2, PS) | 71.5 % of control
17 | TGGATATAGTTAAGGC (sugars l3 d10 l3, PS) | 90.5 % of control
18 | GATACATGCGTCCTTT (sugars l3 d10 l3, PS) | 110 % of control
19 | ACATCTCTCTAGACAT (sugars l4 d9 l3, PS) | 59.5 % of control
20 | CCATTCAGATCTATCCA (sugars l3 d12 l2, PS) | 94.3 % of control
21 | TTCTCAGCACACCATTA (sugars l3 d12 l2, PS) | 60.1 % of control
22 | CGAACTGCGAGGAGCA (sugars l3 d10 l3, PS) | 2.71 % of control
23 | TTATTTCCAAATTCACTTTT (sugars l2 d2 l2 d10 l4, PS) | 123 % of control
24 | CAACTCAACATTACCCTTA (sugars l4 d13 l2, PS) | 81.1 % of control
25 | CCACCCTAACACAATCA (sugars l2 d12 l3, PS) | 94 % of control
26 | ACTTACTGATCATAAT (sugars l4 d8 l4, PS) | 77.2 % of control

Row | Sequence | calcium oscillation score
27 | TGTCCAGGGACCCAATCTTC (sugars l3 d14 l3, PS) | 39.9 % of control
28 | TCCTCCATTGTAACTACT (sugars l2 d14 l2, PS) | 59.4 % of control
29 | CATGATCTTAGGCTG (sugars l3 d9 l3, PS) | 46 % of control
30 | GAAAACCATCAACCAC (sugars l4 d8 l4, PS) | 44.3 % of control
31 | ATAGTCACTCTGGTG (sugars l3 d9 l3, PS) | 27.8 % of control
32 | TGATGGATGTTGCCTA (sugars l3 d10 l3, PS) | 29.6 % of control
33 | TTTTTCTCTCTTAACTTT (sugars l4 d10 l4, PS) | 94.5 % of control
34 | TGCCTAATGAGCCACA (sugars l3 d10 l3, PS) | 44.4 % of control
35 | ACTCAACATTACCCTTAAA (sugars l4 d11 l4, PS) | 82.4 % of control
36 | GGGCGAGTCTACCATGTCGA (sugars l3 d14 l3, PS) | 66 % of control
37 | AATTATTTACACTGTCC (sugars l4 d9 l4, PS) | 55.6 % of control
38 | GGCTTTGGCGTTCTCG (sugars l3 d10 l3, PS) | 1.35 % of control
39 | GTTATACAGTTGGCCCTACC (sugars l3 d14 l3, PS) | 14.3 % of control
40 | TCCTTGAAGTCAAGCTTCTC (sugars l3 d14 l3, PS) | 49.8 % of control
41 | TTATACAGTTGGCCCTACCA (sugars l3 d14 l3, PS) | 40.5 % of control
42 | TTTGTAGACTATTTGC (sugars l3 d10 l3, PS) | 0 % of control
43 | CGAGCCAAAGCCGA (sugars l3 d8 l3, PS) | 116 % of control
44 | TCCTGGTTTATGATGGATGT (sugars l3 d14 l3, PS) | 5.81 % of control
45 | CATCGCTTCCAGTCCC (sugars l3 d10 l3, PS) | 39.1 % of control
46 | GTCCTCACTTTACACATT (sugars l3 d13 l2, PS) | 41 % of control
47 | TTGTACACGATCTCCG (sugars l3 d10 l3, PS) | 55.2 % of control
48 | GTGATATTGTCCAGGGACCC (sugars l3 d14 l3, PS) | 0 % of control
49 | ACAGCCTCATAAACCTA (sugars l3 d11 l3, PS) | 59.4 % of control
50 | CGTGATCTTCCATCAC (sugars l3 d10 l3, PS) | 127 % of control
51 | GTGATGCAGGAGTT (sugars l3 d8 l3, PS) | 64.8 % of control
52 | TAACCAATTAACCGAA (sugars l3 d10 l3, PS) | 179 % of control

Row | Sequence | calcium oscillation score
53 | CTTAATTTCACCCTCA (sugars l3 d10 l3, PS) | 40.3 % of control
54 | AGTTTGTGCAAGGTC (sugars l3 d9 l3, PS) | 0 % of control
55 | TTACACCATCCAAGTC (sugars l4 d9 l3, PS) | 101 % of control
56 | TATTTCCAAATTCACTTTTA (sugars lldldldddddddddlldll, PS) | 141 % of control
57 | CCTTTGAAAGTCCTTT (sugars l3 d9 l4, PS) | 90.5 % of control
58 | AAGGTCAGCTTGTGGG (sugars l3 d10 l3, PS) | 11.4 % of control
59 | TTCCAGTCCCGTCTTT (sugars l3 d10 l3, PS) | 73.1 % of control
60 | AAATCAATTCTCATTTCAAC (sugars l4 d12 l4, PS) | 58.2 % of control
61 | CCACCATACTTGACTTC (sugars l3 d12 l2, PS) | 91.6 % of control
62 | CTTTATTTCCAAATTCACTT (sugars l2 d2 l1 d12 l3, PS) | 108 % of control
63 | AATACATCAATAGAAGGCAA (sugars l3 d14 l3, PS) | 16.1 % of control
64 | CCTACTTTATTCCCTTAA (sugars l2 d12 l4, PS) | 86.8 % of control
65 | CGGAAGGTCAGCTTGT (sugars l3 d10 l3, PS) | 32.5 % of control
66 | CGTCCCAGCGTGATCTTCCA (sugars l4 d11 l5, PS) | 42.6 % of control
67 | CTTTACCCATCTTAATTCAT (sugars l3 d15 l2, PS) | 82.1 % of control
68 | ATTCTCAGCACACCATT (sugars l4 d11 l2, PS) | 41.3 % of control
69 | ACTCAAATCAATTCTCATTT (sugars l4 d12 l4, PS) | 70.1 % of control
70 | AGAGAGACCACATTATCATC (sugars l3 d14 l3, PS) | 68.5 % of control
71 | TCGCTTCCAGTCCCGT (sugars l3 d10 l3, PS) | 110 % of control
72 | GGAAAGATGAAATTTGCTCT (sugars l3 d14 l3, PS) | 74.1 % of control
73 | TCCCACCATCCACGCTC (sugars l2 d13 l2, PS) | 64.7 % of control
74 | TTCTTCCTTTGTAATTC (sugars l4 d11 l2, PS) | 43.5 % of control
75 | TTCTAGTTATACAGTTGGCC (sugars l3 d14 l3, PS) | 26.2 % of control
76 | CCACTTTACTTTGCAAC (sugars l4 d11 l2, PS) | 55.8 % of control
77 | TCAACATTACCCTTAAATAT (sugars l4 d13 l3, PS) | 82.4 % of control
78 | TTTAACTCAAATCAATTCT (sugars l4 d11 l4, PS) | 72.6 % of control
